Reference: patent US20240368163A1, “COMPOUNDS AND METHODS FOR MODULATING SPLICING” (REMIX THERAPEUTICS INC., priority 2021, published 2024)

Columns and labels:
Format in all cases: cell-based, human
HTT [1] = assay: Splicing RT-qPCR assay, HTT mRNA canonical junction (CJ) and alternative junction (AJ); conditions: Homo sapiens; for AC50: increase in AJ mRNA
Outline: (§1)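 A673 or K562 cells were treated 24 h at 37 °C with an 11-point 3-fold dilution series (top 10 uM final, DMSO ≤0.25%). Lysates underwent one-step RT-qPCR for canonical (CJ) and alternative (AJ) junctions; Ct normalized to GAPDH, GUSB or PPIA and DMSO control via 2^(−ΔΔCt), expressed as percentage response.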

MYB [2] = assay: Splicing RT-qPCR assay, MYB mRNA canonical junction (CJ) and alternative junction (AJ); conditions: Homo sapiens; for AC50: increase in AJ mRNA
Outline: as §1

SMN2 = assay: Splicing RT-qPCR panel, SMN2 canonical junction (CJ) mRNA; conditions: Homo sapiens, RT-qPCR panel, canonical junction mRNA; compound concentration having 50% response in CJ decrease; read-out: SMN2 IC50 (decrease in CJ mRNA levels)
Outline: as §1

Target C [3] = assay: Splicing RT-qPCR panel, Target C canonical junction (CJ) mRNA; conditions: Homo sapiens, RT-qPCR panel, canonical junction mRNA; compound concentration having 50% response in CJ decrease; read-out: Target C IC50 (decrease in CJ mRNA levels)
Outline: as §1

MYB [4] = assay: HiBiT protein abundance assay, MYB; conditions: Homo sapiens, K562, 24 h, Table 13A, modified K562 cells
Outline: (§2)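 HiBiT-tagged endogenous targets in K562 cells treated 24 h at 37° C. with 10-point 3-fold dilutions (top 10 μM, DMSO ≤0.25%). Luminescence read after lytic LgBiT detection; response normalised to unmodified-cell and DMSO controls, IC50 interpolated at 50% from four-parameter logistic fit.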

HTT [5] = assay: HiBiT protein abundance assay, HTT; conditions: Homo sapiens, K562, 24 h, Table 13A, modified K562 cells
Outline: as §2

Target C [6] = assay: HiBiT protein abundance assay, Target C; conditions: Homo sapiens, K562, 24 h, Table 13A, modified K562 cells
Outline: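 HiBiT knock-in K562-derived cells seeded at 10000/well and treated with 10-point 3-fold dilutions (top final 10 μM, ≤0.25% DMSO) for 24 h at 37 °C. Lytic HiBiT luminescence normalised to unmodified-cell and DMSO controls; IC50 from 4-parameter fit at 50% abundance.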

[7] = 24 h, decrease in CJ mRNA, A673 or K562 cells, 24 hours treatment, RT-qPCR, read-out: HTT CJ IC50
[8] = 24 h, A673 or K562 cells, 24 hours treatment, RT-qPCR
[9] = RT-qPCR panel, canonical junction mRNA, compound concentration having 50% response in CJ decrease, read-out: HTT IC50 (decrease in CJ mRNA levels)
[10] = 24 h, decrease in CJ mRNA, A673 or K562 cells, 24 hours treatment, RT-qPCR, read-out: MYB CJ IC50
[11] = RT-qPCR panel, canonical junction mRNA, compound concentration having 50% response in CJ decrease, read-out: MYB IC50 (decrease in CJ mRNA levels)

SMILES	IC50 (HTT [1]; [7]) [µM]	AC50 (HTT [1]; [8]) [µM]	IC50 (HTT [1]; [9]) [µM]	IC50 (MYB [2]; [10]) [µM]	AC50 (MYB [2]; [8]) [µM]	IC50 (MYB [2]; [11]) [µM]	IC50 (SMN2) [µM]	IC50 (Target C [3]) [µM]	IC50 (MYB [4]) [µM]	IC50 (HTT [5]) [µM]	IC50 (Target C [6]) [µM]
CC(C)(C)NC1CCN(c2ccc(-c3ccc(-n4cccn4)c4[nH]ncc34)nn2)C1 (centres unmarked) [Compound 380, N-tert-butyl-1-{6-[7-(pyrazol-1-yl)-1H-indazol-4-yl]pyridazin-3-yl}pyrrolidin-3-amine]	1 to 10	1 to 10	1 to 10	1 to 10	1 to 10	1 to 10	0.1 to 1	1 to 10	1 to 10	1 to 10	1 to 10
CCNC1CCN(c2ccc(-c3ccc(-c4cn[nH]c4)c4ncsc34)nn2)CC1 [Compound 410, N-ethyl-1-[6-[4-(1H-pyrazol-4-yl)-1,3-benzothiazol-7-yl]pyridazin-3-yl]piperidin-4-amine]	> 10	> 10	> 10	1 to 10	> 10	1 to 10	1 to 10	> 10	1 to 10	1 to 10	1 to 10
CNCC1CCN(c2ncc(-c3ccc(-c4cn[nH]c4)c4ncsc34)nn2)C1 (centres unmarked) [Compound 411, N-methyl-1-[1-[6-[4-(1H-pyrazol-4-yl)-1,3-benzothiazol-7-yl]-1,2,4-triazin-3-yl]pyrroledin-3-yl]metha-namine]	1 to 10	> 10	1 to 10	> 10	> 10	> 10	1 to 10	> 10	> 10	> 10	> 10
CNC1CCN(c2ncc(-c3ccc(-c4cn[nH]c4)c4ncsc34)nn2)C1 (centres unmarked) [Compound 412, N-methyl-1-[6-[4-(1H-pyrazol-4-yl)-1,3-benzothiazol-7-yl]-1,2,4-triazin-3-yl]pyrrolidin-3-amine]	0.1 to 1	1 to 10	0.1 to 1	> 10	> 10	> 10	0.1 to 1	> 10	1 to 10	1 to 10	1 to 10
CN(C)C1CCN(c2ncc(-c3ccc(-c4cn[nH]c4)c4ncsc34)nn2)C1 (centres unmarked) [Compound 413]	0.1 to 1	0.1 to 1	0.1 to 1	0.1 to 1	0.1 to 1	0.1 to 1	0.1 to 1	0.1 to 1	0.1 to 1	0.1 to 1	0.1 to 1
c1nc2c(-c3cn[nH]c3)ccc(-c3cnc(N4CCNC(C5CC5)C4)nn3)c2s1 (centres unmarked) [Compound 414]	0.1 to 1	0.1 to 1	0.1 to 1	1 to 10	> 10	1 to 10	1 to 10	1 to 10	1 to 10	0.1 to 1	0.1 to 1
c1nc2c(-c3cn[nH]c3)ccc(-c3cnc(N4CCC(NC5CC5)C4)nn3)c2s1 (centres unmarked) [Compound 416, N-cyclopropyl-1-[6-[4-(1H-pyrazol-4-yl)-1,3-benzothiazol-7-yl]-1,2,4-triazin-3-yl]py-rrolidin-3-amine]	1 to 10	1 to 10	1 to 10	1 to 10	> 10	1 to 10	1 to 10	> 10	1 to 10	1 to 10	1 to 10
